Reference: US20240382629A1, “HETEROBIVALENT AND HOMOBIVALENT AGENTS TARGETING FIBROBLAST ACTIVATION PROTEIN ALPHA AND/OR PROSTATE-SPECIFIC MEMBRANE ANTIGEN” (The Johns Hopkins University, priority 2021, published 2024)
“And” between values parts separate entries of the source, which are not always exact repeats. Identical values can stand only once. Like-named read-outs stand apart in the source and are kept apart here.

Assays:
PREP = PREP (Homo sapiens (Human), UniProt P48147); experiment: PREP inhibition assay (recombinant enzyme, Z-Gly-Pro-AMC substrate); format: biochemical
Sequence of PREP (P48147 whole entry): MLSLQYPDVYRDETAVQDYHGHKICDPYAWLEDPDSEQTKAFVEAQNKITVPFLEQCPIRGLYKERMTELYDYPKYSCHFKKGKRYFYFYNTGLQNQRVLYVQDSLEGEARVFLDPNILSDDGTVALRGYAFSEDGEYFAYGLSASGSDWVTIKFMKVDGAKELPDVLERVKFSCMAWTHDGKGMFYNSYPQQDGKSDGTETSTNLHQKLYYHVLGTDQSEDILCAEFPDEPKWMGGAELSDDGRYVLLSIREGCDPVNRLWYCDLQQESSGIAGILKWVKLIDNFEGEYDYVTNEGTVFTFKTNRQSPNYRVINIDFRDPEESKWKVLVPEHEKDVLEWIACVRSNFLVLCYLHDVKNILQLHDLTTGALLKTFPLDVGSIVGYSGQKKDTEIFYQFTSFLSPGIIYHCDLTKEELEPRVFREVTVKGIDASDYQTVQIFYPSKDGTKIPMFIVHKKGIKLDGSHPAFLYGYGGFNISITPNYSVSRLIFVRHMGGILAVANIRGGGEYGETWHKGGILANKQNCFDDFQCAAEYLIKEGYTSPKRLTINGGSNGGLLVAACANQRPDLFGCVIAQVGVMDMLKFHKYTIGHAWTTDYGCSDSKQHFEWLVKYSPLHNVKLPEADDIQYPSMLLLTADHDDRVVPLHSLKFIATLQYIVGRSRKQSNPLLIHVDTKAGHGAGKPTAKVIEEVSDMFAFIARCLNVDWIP
Method: (§1) PSMA binding affinities of the compounds were determined using a competitive inhibition assay as previously reported. […] FAP, prolyl endopeptidase (PREP), and […] (DPPIV) inhibition assays: Recombinant enzymes (FAP, PREP, DPPIV) were purchased from R&D Systems (Minneapolis, MN). […] Z-Gly-Pro-AMC was used as a substrate for FAP and PREP. H-Gly-Pro-AMC was used as a substrate for DPPIV. The recombinant enzyme (0.4 μg/mL) was incubated with varying amounts of the test articles in the presence of the designated substrate (80 μM) for 10 min at room temperature. Fluorescence intensity was measured with 380 nm excitation and 460 nm emission using the Cytation 5 Cell Imaging Multi-Mode Reader (BioTek, Winooski, VT). IC50 and Ki values were obtained using a sigmoidal dose-response function.

FAP = FAP (Homo sapiens (Human), UniProt Q12884); experiment: FAP inhibition assay (recombinant enzyme, Z-Gly-Pro-AMC substrate); format: biochemical; conditions: for Ki: read-out: FAP Ki
Sequence of FAP (Q12884 whole entry): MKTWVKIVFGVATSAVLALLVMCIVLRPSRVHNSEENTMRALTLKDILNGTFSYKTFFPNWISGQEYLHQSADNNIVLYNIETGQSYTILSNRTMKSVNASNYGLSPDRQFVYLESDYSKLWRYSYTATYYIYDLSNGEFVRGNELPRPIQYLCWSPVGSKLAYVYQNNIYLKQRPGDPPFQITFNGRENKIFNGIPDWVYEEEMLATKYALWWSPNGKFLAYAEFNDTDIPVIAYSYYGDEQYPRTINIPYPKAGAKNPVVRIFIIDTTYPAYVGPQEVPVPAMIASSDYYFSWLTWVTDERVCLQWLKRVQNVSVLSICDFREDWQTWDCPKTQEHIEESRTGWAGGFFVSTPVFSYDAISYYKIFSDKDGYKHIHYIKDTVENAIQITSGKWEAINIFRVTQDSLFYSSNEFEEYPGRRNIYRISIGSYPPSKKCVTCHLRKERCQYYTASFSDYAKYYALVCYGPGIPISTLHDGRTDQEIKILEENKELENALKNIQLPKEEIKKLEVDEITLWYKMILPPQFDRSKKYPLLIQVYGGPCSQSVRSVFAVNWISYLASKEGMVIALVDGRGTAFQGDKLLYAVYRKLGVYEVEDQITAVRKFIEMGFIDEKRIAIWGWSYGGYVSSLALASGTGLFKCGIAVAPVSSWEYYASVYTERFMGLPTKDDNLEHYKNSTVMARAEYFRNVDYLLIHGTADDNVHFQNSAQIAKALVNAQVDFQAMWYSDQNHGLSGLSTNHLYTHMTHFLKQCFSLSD
Method: as §1

DPPIV = DPPIV (Homo sapiens (Human), UniProt P27487); experiment: DPPIV inhibition assay (recombinant enzyme, H-Gly-Pro-AMC substrate); format: biochemical; conditions: for IC50: read-out: DPPIV IC50
Sequence of DPPIV (P27487 whole entry): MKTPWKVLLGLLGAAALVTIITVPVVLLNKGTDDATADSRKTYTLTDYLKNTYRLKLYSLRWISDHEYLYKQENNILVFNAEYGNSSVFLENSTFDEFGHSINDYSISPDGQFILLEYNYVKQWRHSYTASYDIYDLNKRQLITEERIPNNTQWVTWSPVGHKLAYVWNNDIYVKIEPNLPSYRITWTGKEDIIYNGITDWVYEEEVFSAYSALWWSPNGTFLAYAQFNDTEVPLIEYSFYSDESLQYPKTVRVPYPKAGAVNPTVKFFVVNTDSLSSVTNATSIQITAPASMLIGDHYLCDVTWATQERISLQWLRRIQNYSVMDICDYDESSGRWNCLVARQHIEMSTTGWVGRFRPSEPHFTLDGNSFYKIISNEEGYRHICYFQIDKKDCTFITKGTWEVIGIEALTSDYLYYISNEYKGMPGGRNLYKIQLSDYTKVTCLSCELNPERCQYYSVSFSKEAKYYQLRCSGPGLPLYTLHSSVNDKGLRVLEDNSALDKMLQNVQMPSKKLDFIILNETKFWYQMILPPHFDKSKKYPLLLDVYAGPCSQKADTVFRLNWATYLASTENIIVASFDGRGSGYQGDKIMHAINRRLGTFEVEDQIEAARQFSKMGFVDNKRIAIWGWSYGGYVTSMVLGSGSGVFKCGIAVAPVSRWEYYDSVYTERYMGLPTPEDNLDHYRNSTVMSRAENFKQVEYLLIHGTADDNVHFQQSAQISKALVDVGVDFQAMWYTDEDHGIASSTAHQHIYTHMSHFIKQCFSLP
Method: as §1

[1] = Biodistribution of representative compounds (Example 13), % ID/g in tissues of tumor-bearing mice; format: in vivo, mouse
[2] = Biodistribution of representative compounds ([^18F]Sri-07-56, [^18F]Sri-07-52, [^18F]JHU1221823, [^18F]FAPI-74), tissue % ID/g with carrier or blocker; format: in vivo, mouse
From the text: Biodistribution of Representative Compounds

[3] = 60 min + Blocker cold FAPI-04 10 nmole, sub-heading prints [^18F]JHU1221785
[4] = 60 min, 20 μCi per mouse, sub-heading prints [^18F]JHU1221785

N#C[C@@H]1CCCN1C(=O)CNC(=O)c1c(F)cnc2ccccc12 [JHU1220503]
IC50 (PREP; Table 3): 0.688 µM
IC50 (FAP; Table 3): 0.223 µM
Ki (FAP; Table 3): 44600 pM
IC50 (DPPIV; Table 3): > 20 µM

N#C[C@@H]1CCCN1C(=O)CNC(=O)c1ccnc2ccc(OCCCN(Cc3ccc(I)cc3)C(=O)CN3CCN(CC(=O)O)CCN(CC(=O)O)CCN(CC(=O)O)CC3)cc12 [JHU1220627]
IC50 (PREP; Table 3): > 2000 µM
IC50 (FAP; Table 3): 0.00141 µM
Ki (FAP; Table 3): 280 pM
IC50 (DPPIV; Table 3): 836 µM

N#C[C@@H]1CCCN1C(=O)CNC(=O)c1ccnc2cc(F)ccc12 [JHU1220501]
IC50 (PREP; Table 3): 0.522 µM
IC50 (FAP; Table 3): 0.00216 µM
Ki (FAP; Table 3): 433 pM
IC50 (DPPIV; Table 3): > 20 µM

CC1(C)C(/C=C/C2=C(Oc3ccc(S(=O)(=O)O)cc3)C(=C/C=C3/N(CCCCS(=O)(=O)O)c4ccc(S(=O)(=O)O)cc4C3(C)C)/CCC2)=[N+](CCCCCC(=O)N[C@@H](CCCCn2cc(CCC(=O)NCCCOc3ccc4nccc(C(=O)NCC(=O)N5CCC[C@H]5C#N)c4c3)nn2)C(=O)NCCNC(=O)CCC(C(=O)O)N2CCN(CC(=O)O)CCN(CC(=O)O)CCN(CC(=O)O)CC2)c2ccc(S(=O)(=O)[O-])cc21 (stereo partly drawn) [SB-FAP-10]
IC50 (PREP; Table 4): 2.53 µM
IC50 (FAP; Table 4): 0.00343 µM
Ki (FAP; Table 4): 690 pM
IC50 (DPPIV; Table 4): 11.9 µM

N#C[C@@H]1CCCN1C(=O)CNC(=O)c1ccnc2ccc(OCCCNC(=O)CCOCCOCCOCCOCCNC(=O)[C@H](CCCCNC(=O)c3ccc(F)nc3)NC(=O)CN3CCN(CC(=O)O)CCN(CC(=O)O)CCN(CC(=O)O)CC3)cc12 [JHU1221823]
IC50 (PREP; Table 3): 0.24 µM
IC50 (FAP; Table 3): 0.00059 µM
Ki (FAP; Table 3): 120 pM
IC50 (DPPIV; Table 3): 7.47 µM

N#CC1CCCN1C(=O)CNC(=O)c1ccnc2ccc(OCCCNCC([18F])C(O)C(O)C(O)CO)cc12 (stereo not drawn) [[^18F]FAP-FDG]
% ID/g Bladder (individual mouse) [1, 3]: 1.45 % ID/g and 2.74 % ID/g
% ID/g Blood (individual mouse) [1, 3]: 0.20 % ID/g and 0.25 % ID/g
% ID/g Brain (individual mouse) [1, 3]: 4.18 % ID/g and 4.67 % ID/g
% ID/g Fat (individual mouse) [1, 3]: 0.63 % ID/g and 0.26 % ID/g
% ID/g Femur (individual mouse) [1, 3]: 1.33 % ID/g and 1.67 % ID/g
% ID/g Heart (individual mouse) [1, 3]: 11.97 % ID/g and 17.79 % ID/g
% ID/g Kidney (individual mouse) [1, 3]: 0.95 % ID/g and 0.87 % ID/g
% ID/g Large intestine (individual mouse) [1, 3]: 3.51 % ID/g and 3.22 % ID/g
% ID/g Liver (individual mouse) [1, 3]: 0.38 % ID/g and 0.55 % ID/g
% ID/g Lung (individual mouse) [1, 3]: 2.25 % ID/g and 2.08 % ID/g
% ID/g Mean Bladder [1, 3]: 2.10 % ID/g
% ID/g Mean Blood [1, 3]: 0.22 % ID/g
% ID/g Mean Brain [1, 3]: 4.43 % ID/g
% ID/g Mean Fat [1, 3]: 0.44 % ID/g
% ID/g Mean Femur [1, 3]: 1.50 % ID/g
% ID/g Mean Heart [1, 3]: 14.88 % ID/g
% ID/g Mean Kidney [1, 3]: 0.91 % ID/g
% ID/g Mean Large intestine [1, 3]: 3.37 % ID/g
% ID/g Mean Liver [1, 3]: 0.47 % ID/g
% ID/g Mean Lung [1, 3]: 2.17 % ID/g
% ID/g Mean Muscle [1, 3]: 6.73 % ID/g
% ID/g Mean Pancreas [1, 3]: 1.01 % ID/g
% ID/g Mean Salivary gland [1, 3]: 3.76 % ID/g
% ID/g Mean Small intestine [1, 3]: 0.77 % ID/g
% ID/g Mean Spleen [1, 3]: 1.30 % ID/g
% ID/g Mean Stomach [1, 3]: 2.76 % ID/g
% ID/g Mean Tumor [1, 3]: 3.65 % ID/g
% ID/g Muscle (individual mouse) [1, 3]: 6.83 % ID/g and 6.64 % ID/g
% ID/g Pancreas (individual mouse) [1, 3]: 1.20 % ID/g and 0.82 % ID/g
% ID/g Salivery gland (individual mouse) [1, 3]: 5.34 % ID/g and 2.19 % ID/g
% ID/g Small intestine (individual mouse) [1, 3]: 0.61 % ID/g and 0.92 % ID/g
% ID/g Spleen (individual mouse) [1, 3]: 0.92 % ID/g and 1.68 % ID/g
% ID/g Stomach (individual mouse) [1, 3]: 3.50 % ID/g and 2.02 % ID/g
% ID/g Tumor (individual mouse) [1, 3]: 3.33 % ID/g and 3.97 % ID/g
% ID/g Bladder (individual mouse) [1, 4]: 2.55 % ID/g and 2.49 % ID/g
% ID/g Blood (individual mouse) [1, 4]: 0.21 % ID/g and 0.25 % ID/g
% ID/g Brain (individual mouse) [1, 4]: 5.31 % ID/g and 6.18 % ID/g
% ID/g Fat (individual mouse) [1, 4]: 3.29 % ID/g and 1.13 % ID/g
% ID/g Femur (individual mouse) [1, 4]: 2.28 % ID/g and 2.68 % ID/g
% ID/g Heart (individual mouse) [1, 4]: 23.96 % ID/g and 16.00 % ID/g
% ID/g Kidney (individual mouse) [1, 4]: 1.13 % ID/g and 2.01 % ID/g
% ID/g Large intestine (individual mouse) [1, 4]: 4.03 % ID/g and 4.32 % ID/g
% ID/g Liver (individual mouse) [1, 4]: 0.55 % ID/g and 0.70 % ID/g
% ID/g Lung (individual mouse) [1, 4]: 2.15 % ID/g and 2.85 % ID/g
% ID/g Mean Bladder [1, 4]: 2.52 % ID/g
% ID/g Mean Blood [1, 4]: 0.23 % ID/g
% ID/g Mean Brain [1, 4]: 5.74 % ID/g
% ID/g Mean Fat [1, 4]: 2.21 % ID/g
% ID/g Mean Femur [1, 4]: 2.48 % ID/g
% ID/g Mean Heart [1, 4]: 19.98 % ID/g
% ID/g Mean Kidney [1, 4]: 1.57 % ID/g
% ID/g Mean Large intestine [1, 4]: 4.17 % ID/g
% ID/g Mean Liver [1, 4]: 0.63 % ID/g
% ID/g Mean Lung [1, 4]: 2.50 % ID/g
% ID/g Mean Muscle [1, 4]: 6.18 % ID/g
% ID/g Mean Pancreas [1, 4]: 1.33 % ID/g
% ID/g Mean Salivary gland [1, 4]: 5.31 % ID/g
% ID/g Mean Small intestine [1, 4]: 1.06 % ID/g
% ID/g Mean Spleen [1, 4]: 1.29 % ID/g
% ID/g Mean Stomach [1, 4]: 2.72 % ID/g
% ID/g Mean Tumor [1, 4]: 5.02 % ID/g
% ID/g Muscle (individual mouse) [1, 4]: 7.65 % ID/g and 4.71 % ID/g
% ID/g Pancreas (individual mouse) [1, 4]: 1.25 % ID/g and 1.42 % ID/g
% ID/g Salivery gland (individual mouse) [1, 4]: 6.70 % ID/g and 3.91 % ID/g
% ID/g Small intestine (individual mouse) [1, 4]: 1.21 % ID/g and 0.91 % ID/g
% ID/g Spleen (individual mouse) [1, 4]: 1.20 % ID/g and 1.38 % ID/g
% ID/g Stomach (individual mouse) [1, 4]: 2.04 % ID/g and 3.39 % ID/g
% ID/g Tumor (individual mouse) [1, 4]: 4.12 % ID/g and 5.91 % ID/g

N#CC1CCCN1C(=O)CNC(=O)c1ccnc2ccc(OCCCNC(=O)CCc3cn(CCC(NC(=O)c4ccc([18F])nc4)C(=O)NCCNC(=O)CN4CCN(CC(=O)O)CCN(CC(=O)O)CCN(CC(=O)O)CC4)nn3)cc12 (stereo not drawn) [[^18F]Sri-07-56]
% ID/g Blood (individual mouse) ([1]; 60 min, 2 μCi per mouse): 10.48 % ID/g and 7.56 % ID/g
% ID/g Heart (individual mouse) ([1]; 60 min, 2 μCi per mouse): 4.72 % ID/g and 3.07 % ID/g
% ID/g Liver (individual mouse) ([1]; 60 min, 2 μCi per mouse): 2.82 % ID/g and 2.25 % ID/g
% ID/g Lung (individual mouse) ([1]; 60 min, 2 μCi per mouse): 5.06 % ID/g and 3.66 % ID/g
% ID/g Mean Blood ([1]; 60 min, 2 μCi per mouse): 9.02 % ID/g
% ID/g Mean Heart ([1]; 60 min, 2 μCi per mouse): 3.90 % ID/g
% ID/g Mean Liver ([1]; 60 min, 2 μCi per mouse): 2.54 % ID/g
% ID/g Mean Lung ([1]; 60 min, 2 μCi per mouse): 4.36 % ID/g
% ID/g Mean Spleen ([1]; 60 min, 2 μCi per mouse): 1.91 % ID/g
% ID/g Spleen (individual mouse) ([1]; 60 min, 2 μCi per mouse): 2.19 % ID/g and 1.64 % ID/g
Bladder % ID/g Mean [2]: 0.99 % ID/g
Brain % ID/g Mean [2]: 0.22 % ID/g
Fat % ID/g Mean [2]: 0.89 % ID/g
Femur % ID/g Mean [2]: 1.32 % ID/g
Kidney % ID/g Mean [2]: 2.10 % ID/g
Large intestine % ID/g Mean [2]: 0.93 % ID/g
Muscle % ID/g Mean [2]: 0.90 % ID/g
Pancreas % ID/g Mean [2]: 2.18 % ID/g
Salivary gland % ID/g Mean [2]: 3.55 % ID/g
Small intestine % ID/g Mean [2]: 1.73 % ID/g
Stomach % ID/g Mean [2]: 0.86 % ID/g
Tumor % ID/g Mean [2]: 1.78 % ID/g
Bladder % ID/g ([2]; individual mice): 0.86 % ID/g and 1.12 % ID/g
Brain % ID/g ([2]; individual mice): 0.28 % ID/g and 0.16 % ID/g
Fat % ID/g ([2]; individual mice): 0.38 % ID/g and 1.40 % ID/g
Femur % ID/g ([2]; individual mice): 1.63 % ID/g and 1.01 % ID/g
Kidney % ID/g ([2]; individual mice): 2.24 % ID/g and 1.96 % ID/g
Large intestine % ID/g ([2]; individual mice): 0.90 % ID/g and 0.95 % ID/g
Muscle % ID/g ([2]; individual mice): 0.74 % ID/g and 1.06 % ID/g
Pancreas % ID/g ([2]; individual mice): 2.39 % ID/g and 1.96 % ID/g
Salivery gland % ID/g ([2]; individual mice): 4.40 % ID/g and 2.70 % ID/g
Small intestine % ID/g ([2]; individual mice): 2.06 % ID/g and 1.40 % ID/g
Stomach % ID/g ([2]; individual mice): 1.05 % ID/g and 0.67 % ID/g
Tumor % ID/g ([2]; individual mice): 1.86 % ID/g and 1.70 % ID/g

N#C[C@@H]1CC(F)(F)CN1C(=O)CNC(=O)c1ccnc2ccc(OCCCN3CCN(C(=O)CN4CCN(CC(=O)O)CCN(CC(=O)O)CCN(CC(=O)O)CC4)CC3)cc12 [FAPI-04, reference compound]
Ki (DPPIV): 0.8 µM

N#C[C@@H]1CCCN1C(=O)CNC(=O)c1ccnc2ccc(F)cc12 [JHU1220450]
IC50 (FAP; Table 3): 0.000119 µM
Ki (FAP; Table 3): 23.9 pM
IC50 (DPPIV; Table 3): > 20 µM
